In patent publication US10513511B2, “Aqueous suspension formulation comprising 4-(4-(4-(((3R,5R)-5-((1H-1,2,4-triazol-1-yl)methyl)-5-(2,4-difluoro-phenyl)tetrahydrofuran-3-yl)methoxy)-3-methylphenyl) or a pharmaceutically acceptable salt thereof” (PULMOCIDE LIMITED, priority 2015, dated 2019):
In brackets after ≈: the same amount, converted by molar mass.

Experiments:
[1] = tested on: Aspergillus fumigatus (ATCC 13073); experiment: In vivo anti-fungal activity, extended prophylactic dosing in infected immunocompromised neutropenic mice; design: species or system A/J mice; settings: for CFU in lung: mean ± SEM, N = 5
Protocol: (§1) Aspergillus fumigatus (ATCC 13073 [strain: NIH 5233], American Type Culture Collection, Manassas, Va., USA) was grown on Malt agar (Nissui Pharmaceutical, Tokyo, Japan) plates for 6-7 days at RT (24±1° C.). Spores were aseptically dislodged from the agar plates and suspended in sterile distilled water with 0.05% Tween 80 and 0.1% agar. On the day of infection, spore counts were assessed by haemocytometer and the inoculum was adjusted to obtain a concentration of 1.67×10^8 spores mL^−1 of physiological saline. […] On day 0, animals were infected with the spore suspension (30 μL intra-nasally).
Test substances were administered intra-nasally (35 μL of a suspension (0.0032-10.0 mg/mL of drug substance in physiological saline) once daily, on days 1, 2 and 3 only (thereby representing a therapeutic treatment regimen). […] One group was dosed 30 min before infection on day 0 but not subsequently, while a second group was further dosed on days 1, 2 and 3 after infection. The effects of these treatment paradigms were compared with those obtained when treatment was restricted in other groups to either one day or 30 min before inoculation and then on days 1, 2 and 3 post infection in both cases. In a final group, dosing was limited still further with animals dosed twice, one day and 30 min before infection only.
(§2) Animal body weights were monitored daily and at 6 hr after the last dose of drug was administered on day 3, the animals were anesthetised, the tracheas cannulated and BALF blood and lung tissue were collected. The levels of IL-6 and TNFα in serum were determined using Quantikine® mouse IL-6 or TNF-α ELISA kit (R&D systems, Inc., Minneapolis, Minn., USA) respectively. Aspergillus GM in serum was determination using Platelia GM-EIA kits (Bio-Rad Laboratories, Redmond, Wash., USA). Cut-off index (COI) was calculated by the formula: Cut-off index=OD in sample/OD in cut-off control provided in kit. For tissue fungal load assays, 100 mg of lung tissue was removed aseptically and homogenized in 0.2 mL of 0.1% agar in sterile distilled water. Serially diluted lung homogenates were plated on Malt agar plates (50 μL/plate), and incubated at 24±1° C. for 72 to 96 h. The colonies of A. fumigatus on each plate were counted and the fungal titre presented herein as CFUs per gram of lung tissue.

[2] = tested on: IL-6; experiment: Serum IL-6 in Aspergillus fumigatus infected, immunocompromised, neutropenic mice; assay type: in vivo, A/J mice; settings: for IL-6 in serum, % Inhibition / Conc of Biomarkers, IL-6 in serum: therapeutic; for Conc of Biomarkers, IL-6 in serum: mean ± SEM, N = 6
Protocol: as §1
(§3) Test substances were administered intra-nasally (35 μL of a suspension (0.0032-10.0 mg/mL of drug substance in physiological saline) once daily, on days 1, 2 and 3 only (thereby representing a therapeutic treatment regimen). For extended prophylactic treatment, test compounds (35 μL of a suspension of 0.0032 or 0.016 mg/mL in physiological saline) were administered intra-nasally once daily for seven days. One group was dosed 30 min before infection on day 0 but not subsequently, while a second group was further dosed on days 1, 2 and 3 after infection. The effects of these treatment paradigms were compared with those obtained when treatment was restricted in other groups to either one day or 30 min before inoculation and then on days 1, 2 and 3 post infection in both cases. In a final group, dosing was limited still further with animals dosed twice, one day and 30 min before infection only.
as §2

[3] = tested on: Aspergillus fumigatus (ATCC 13073); experiment: In vivo anti-fungal activity, therapeutic treatment of infected immunocompromised neutropenic mice; design: species or system A/J mice; settings: for CFU in lung, % Inhibition of response / DNA in Lung / DNA in Lung, % Inhibition of response / GM in Serum / GM in serum, % Inhibition of response / CFU in lung: therapeutic; for CFU in lung: mean ± SEM, n = 6
Protocol: as §1, §3, §2
For determination of Aspergillus fumigatus DNA content, DNA was extracted from either infected lungs or Aspergillus fumigatus with the Isoplant (Nippon Gene) according to the manufacture's instruction. The tissues cut to <3 mm in any length were mixed with solution I (extraction buffer: 300 μL). Solution II (lysis buffer; benzyl chloride: 150 μL) was then added to the mixtures followed by mixing with a vortex mixer for 5 seconds. After incubation at 50° C. for 15 min, solution III (sodium acetate, pH5.2: 150 μL) was added the mixtures agitated vigorously for 1-3 seconds and then incubated on ice for 15 min. After the incubation, the mixtures were centrifuged at 12,000 g for 15 min at 4° C. DNA in the upper aq phases of the supernatants was precipitated with 100% ethanol (×2.5 vol), washed with 70% ethanol and dissolved in 5-10 μL of TE buffer.
DNA amplification was performed with Premix Ex Taq™ (Takara Bio) in the 96-well optical reaction plate. Aspergillus fumigatus 18S rRNA gene fragments were amplified with the primer pair; 5′-GGCCCTTAA ATAGCCCGGT-3′ (SEQ ID No. 1) and 5′-[…]-3′ (SEQ ID No. 2), and hybridization probe; 5′-FAM-AGCCAGCGGCCCGCAAATG-TAMRA-3′ (SEQ ID No. 3). Real time PCR was performed in a (25 μL contained 50 ng of mouse DNA with 200 nM of probe) under the following conditions: initial incubation for 2 min at 50° C., initial denaturation for 10 min at 95° C., followed by 55 cycles of 15 seconds at 95° C. and 1 min at 65° C. […]

[4] = Days dosed −1 to + 3, 0.64 μg/mL
[5] = Days dosed −1 to + 3, 3.2 μg/mL
[6] = Days dosed −7 to + 3, 0.64 μg/mL
[7] = Days dosed −7 to + 3, 3.2 μg/mL
[8] = Therapeutic Regimen, intranasal

Cc1cc(N2CCN(c3ccc(C(=O)N[C@H]4CCCC[C@@H]4O)cc3)CC2)ccc1OC[C@@H]1CO[C@@](Cn2cncn2)(c2ccc(F)cc2F)C1 [Compound (Ia), 4-(4-(4-(((3R,5R)-5-((1H-1,2,4-triazol-1-yl)methyl)-5-(2,4-difluorophenyl)tetrahydrofuran-3-yl)methoxy)-3-methylphenyl)piperazin-1-yl)-N-((1S,2S)-2-hydroxycyclohexyl) benzamide]
CFU in lung, % Inhibition ([1]; Days dosed −1, 0, 3.2 μg/mL): −222% | GM in BALF ([1]; Days dosed −1, 0, 3.2 μg/mL): 4.5 ± 0.63 COI | GM in BALF, % Inhibition ([1]; Days dosed −1, 0, 3.2 μg/mL): −10% | GM in Serum ([1]; Days dosed −1, 0, 3.2 μg/mL): 4.7 ± 0.65 COI | GM in Serum, % Inhibition ([1]; Days dosed −1, 0, 3.2 μg/mL): −21% | CFU in lung ([1]; Days dosed −1, 0, 3.2 μg/mL intranasal): 20.4 ± 15.7 /mg of lung | CFU in lung, % Inhibition [1, 4]: 57% | GM in BALF [1, 4]: 3.9 ± 0.59 COI | GM in BALF, % Inhibition [1, 4]: 5% | GM in Serum [1, 4]: 3.6 ± 0.52 COI | GM in Serum, % Inhibition [1, 4]: 8% | CFU in lung ([1]; Days dosed −1 to + 3, 0.64 μg/mL intranasal): 4.0 ± 5.2 /mg of lung | CFU in lung, % Inhibition [1, 5]: 89% | GM in BALF [1, 5]: 3.4 ± 0.46 COI | GM in BALF, % Inhibition [1, 5]: 17% | GM in Serum [1, 5]: 2.8 ± 0.24 COI | GM in Serum, % Inhibition [1, 5]: 28% | CFU in lung ([1]; Days dosed −1 to + 3, 3.2 μg/mL intranasal): 1.0 ± 1.4 /mg of lung | CFU in lung, % Inhibition ([1]; Days dosed −7 to 0, 3.2 μg/mL): 90% | GM in BALF ([1]; Days dosed −7 to 0, 3.2 μg/mL): 2.9 ± 0.97 COI | GM in BALF, % Inhibition ([1]; Days dosed −7 to 0, 3.2 μg/mL): 29% | GM in Serum ([1]; Days dosed −7 to 0, 3.2 μg/mL): 2.6 ± 0.48 COI | GM in Serum, % Inhibition ([1]; Days dosed −7 to 0, 3.2 μg/mL): 33% | CFU in lung ([1]; Days dosed −7 to 0, 3.2 μg/mL intranasal): 0.9 ± 1.1 /mg of lung | CFU in lung, % Inhibition [1, 6]: 78% | GM in BALF [1, 6]: 3.1 ± 0.85 COI | GM in BALF, % Inhibition [1, 6]: 24% | GM in Serum [1, 6]: 2.6 ± 0.82 COI | GM in Serum, % Inhibition [1, 6]: 33% | CFU in lung ([1]; Days dosed −7 to + 3, 0.64 μg/mL intranasal): 2.0 ± 3.6 /mg of lung | CFU in lung, % Inhibition [1, 7]: 99.6% | GM in BALF [1, 7]: 1.5 ± 0.59 COI | GM in BALF, % Inhibition [1, 7]: 63% | GM in Serum [1, 7]: 1.5 ± 0.85 COI | GM in Serum, % Inhibition [1, 7]: 62% | CFU in lung ([1]; Days dosed −7 to + 3, 3.2 μg/mL intranasal): 0.04 ± 0.08 /mg of lung | IL-6 in serum, % Inhibition ([2]; Drug Conc 3.2 μg/mL): 17% | Conc of Biomarkers, IL-6 in serum ([2]; Drug Conc 3.2 μg/mL): 247 ± 185 pg/mL | IL-6 in serum, % Inhibition ([2]; Drug Conc 16 μg/mL): 12% | Conc of Biomarkers, IL-6 in serum ([2]; Drug Conc 16 μg/mL): 262 ± 185 pg/mL | IL-6 in serum, % Inhibition ([2]; Drug Conc 80 μg/mL): 78% | Conc of Biomarkers, IL-6 in serum ([2]; Drug Conc 80 μg/mL): 66.5 ± 32.9 pg/mL | ID50 Values for biomarkers indicated, IL-6 ([2]; serum, title: Therapeutic Treatment): 50 mg/L | CFU in lung, % Inhibition of response ([3]; Drug Conc 3.2 μg/mL intranasal): 19% | DNA in Lung ([3]; Drug Conc 3.2 μg/mL intranasal): 41.7 ± 29.0 pg/50 ng mouse DNA | DNA in Lung, % Inhibition of response ([3]; Drug Conc 3.2 μg/mL intranasal): 41% | GM in Serum ([3]; Drug Conc 3.2 μg/mL intranasal): 2.85 ± 2.76 COI | GM in serum, % Inhibition of response ([3]; Drug Conc 3.2 μg/mL intranasal): 16% | CFU in lung ([3]; Drug Conc 3.2 μg/mL intranasal): 25.8 ± 20.8 /mg of lung | CFU in lung, % Inhibition of response ([3]; Drug Conc 16 μg/mL intranasal): 24% | DNA in Lung ([3]; Drug Conc 16 μg/mL intranasal): 56.1 ± 53.4 pg/50 ng mouse DNA | DNA in Lung, % Inhibition of response ([3]; Drug Conc 16 μg/mL intranasal): 21% | GM in Serum ([3]; Drug Conc 16 μg/mL intranasal): 3.01 ± 2.14 COI | GM in serum, % Inhibition of response ([3]; Drug Conc 16 μg/mL intranasal): 11% | CFU in lung ([3]; Drug Conc 16 μg/mL intranasal): 24.2 ± 15.8 /mg of lung | CFU in lung, % Inhibition of response ([3]; Drug Conc 80 μg/mL intranasal): 71% | DNA in Lung ([3]; Drug Conc 80 μg/mL intranasal): 4.10 ± 4.60 pg/50 ng mouse DNA | DNA in Lung, % Inhibition of response ([3]; Drug Conc 80 μg/mL intranasal): 94% | GM in Serum ([3]; Drug Conc 80 μg/mL intranasal): 0.53 ± 0.38 COI | GM in serum, % Inhibition of response ([3]; Drug Conc 80 μg/mL intranasal): 84% | CFU in lung ([3]; Drug Conc 80 μg/mL intranasal): 9.30 ± 5.20 /mg of lung | ID50 Values, A. fumigatus DNA in Lung [3, 8]: 50 mg/L (≈ 72.8 µM) | ID50 Values, GM in serum [3, 8]: 47 mg/L (≈ 68.4 µM) | ID50 Values, Lung Fungal Load [3, 8]: 51 mg/L (≈ 74.3 µM)

CC[C@@H]([C@H](C)O)n1ncn(-c2ccc(N3CCN(c4ccc(OC[C@@H]5CO[C@@](Cn6cncn6)(c6ccc(F)cc6F)C5)cc4)CC3)cc2)c1=O [Posaconazole, reference compound]
ID50 Values, GM in serum [3, 8]: 590 mg/L (≈ 842 µM) | ID50 Values, Lung Fungal Load [3, 8]: 390 mg/L (≈ 557 µM)
